This note sets out measurements from patent US8969325B2, “TRPV1 antagonists” (AbbVie Inc., priority 2011, dated 2015).

pIC50: −log10 of the molar value.

The target in assay [1] is T1, human TRPV1 (Homo sapiens (Human), UniProt Q8NER1). The experiment in a line: Capsaicin Activation Assay (intracellular Ca2+, FLIPR). Type of assay: cell-based. To be noted: recombinant HEK293 cells expressing hTRPV1, 50 nM capsaicin. The essentials: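 Ca2+ fluorescence was recorded by FLIPR every 1 to 5 seconds in HEK293 cells, clonally selected for stable human TRPV1 expression and plated one day ahead. Test compounds came as serial dilutions of 10 mM DMSO stocks.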
T1 sequence (Q8NER1 whole entry): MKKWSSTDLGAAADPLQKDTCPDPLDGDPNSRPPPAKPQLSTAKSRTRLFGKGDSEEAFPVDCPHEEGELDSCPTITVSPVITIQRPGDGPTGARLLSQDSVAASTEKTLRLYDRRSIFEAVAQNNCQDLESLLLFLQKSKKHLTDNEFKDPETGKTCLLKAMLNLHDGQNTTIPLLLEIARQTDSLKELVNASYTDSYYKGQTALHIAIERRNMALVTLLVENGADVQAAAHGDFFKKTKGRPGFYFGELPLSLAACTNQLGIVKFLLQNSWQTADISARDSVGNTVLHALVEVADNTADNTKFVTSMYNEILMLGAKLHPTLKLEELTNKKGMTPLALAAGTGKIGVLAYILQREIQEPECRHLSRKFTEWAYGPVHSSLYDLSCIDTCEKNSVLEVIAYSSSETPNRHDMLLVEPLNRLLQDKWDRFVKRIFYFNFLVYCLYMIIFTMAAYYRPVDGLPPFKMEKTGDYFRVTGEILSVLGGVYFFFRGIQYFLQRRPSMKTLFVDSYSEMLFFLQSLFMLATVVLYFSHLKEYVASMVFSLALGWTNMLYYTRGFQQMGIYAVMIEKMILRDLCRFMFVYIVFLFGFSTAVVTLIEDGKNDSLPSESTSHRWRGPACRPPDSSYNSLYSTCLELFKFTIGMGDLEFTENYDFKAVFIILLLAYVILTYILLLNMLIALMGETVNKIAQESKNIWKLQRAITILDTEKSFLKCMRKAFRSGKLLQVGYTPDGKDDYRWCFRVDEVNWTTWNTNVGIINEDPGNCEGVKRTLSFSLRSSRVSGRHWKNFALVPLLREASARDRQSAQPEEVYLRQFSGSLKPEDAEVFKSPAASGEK

Assay [2] addresses T1, human TRPV1. The experiment in a line: Acid Activation Assay (pH 5.0, intracellular Ca2+, FLIPR). Type of assay: cell-based. To be noted: percentage of the maximal pH 5.0-induced response remaining; recombinant HEK293 hTRPV1 cells; maximum concentration tested 37.5 μM. An outline of the steps: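 Readout: peak [Ca2+]i fluorescence over baseline on FLIPR, expressed as percentage remaining of the maximal pH 5.0-evoked signal. Stable hTRPV1-HEK293 cells with Calcium-4 dye received compound (12 half-log concentrations, maximum 37.5 μM) 3 min before acidic pH 5.0 buffer.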

Regarding `CCCC1(CCC)C[C@@H](NC(=O)Nc2ccc3c(c2)N(C)C(=O)CC3)c2cccc(F)c2O1` [Example 271, 1-[(4R)-8-fluoro-2,2-dipropyl-3,4-dihydro-2H-chromen-4-yl]-3-(1-methyl-2-oxo-1,2,3,4-tetrahydroquinolin-7-yl)urea], at human TRPV1 [1], the pIC50 is 6.77. Also, on human TRPV1 [2], the “human TRPV1 H^+ (max % remain)” value is given as 69%.

Consider `CCC1(CC)C[C@@H](NC(=O)Nc2ccc3c(c2)N(C)C(=O)CC3)c2ccc(OC(F)(F)F)cc2O1` [Example 272, 1-[(4R)-2,2-diethyl-7-(trifluoromethoxy)-3,4-dihydro-2H-chromen-4-yl]-3-(1-methyl-2-oxo-1,2,3,4-tetrahydroquinolin-7-yl)urea], for which, at human TRPV1 [1], the pIC50 is 6.74. For the same compound, on human TRPV1 [2], the “human TRPV1 H^+ (max % remain)” value worked out at 101%.

`CN1C(=O)CCc2ccc(NC(=O)N[C@@H]3CC(CF)(CF)Oc4c3ccc(Cl)c4F)cc21` [Example 273, 1-[(4R)-7-chloro-8-fluoro-2,2-bis(fluoromethyl)-3,4-dihydro-2H-chromen-4-yl]-3-(1-methyl-2-oxo-1,2,3,4-tetrahydroquinolin-7-yl)urea]: the pIC50 at human TRPV1 [1] was 6.68. Also, the “human TRPV1 H^+ (max % remain)” value on human TRPV1 [2] is 55%.

As for `CN1C(=O)CCc2ccc(NC(=O)N[C@@H]3CC(C)(C)Oc4ccc(F)cc43)cc21` [Example 274, 1-[(4R)-6-fluoro-2,2-dimethyl-3,4-dihydro-2H-chromen-4-yl]-3-(1-methyl-2-oxo-1,2,3,4-tetrahydroquinolin-7-yl)urea], the pIC50 at human TRPV1 [1] is 7.28. In addition, the “human TRPV1 H^+ (max % remain)” value at human TRPV1 [2] is listed as 81%.

As to `CN1C(=O)CCc2ccc(NC(=O)N[C@@H]3CC(C)(C)Oc4c3ccc(F)c4Cl)cc21` [Example 275, 1-[(4R)-8-chloro-7-fluoro-2,2-dimethyl-3,4-dihydro-2H-chromen-4-yl]-3-(1-methyl-2-oxo-1,2,3,4-tetrahydroquinolin-7-yl)urea], the negative logarithm of the IC50 (pIC50) at human TRPV1 [1] is 6.04. In addition, the “human TRPV1 H^+ (max % remain)” value on human TRPV1 [2] is recorded as 83%.

As to `CN1C(=O)CCc2ccc(NC(=O)N[C@H]3CCOc4cc(OC(F)(F)F)ccc43)cc21` [Example 276, 1-(1-methyl-2-oxo-1,2,3,4-tetrahydroquinolin-7-yl)-3-[(4S)-7-(trifluoromethoxy)-3,4-dihydro-2H-chromen-4-yl]urea], the pIC50 on human TRPV1 [1] is 7.36. In addition, the “human TRPV1 H^+ (max % remain)” value at human TRPV1 [2] was 77%.

As to `CN1C(=O)CCc2ccc(NC(=O)N[C@@H]3CC(C)(C)Oc4cc(Cl)ccc43)cc21` [Example 277, 1-[(4R)-7-chloro-2,2-dimethyl-3,4-dihydro-2H-chromen-4-yl]-3-(1-methyl-2-oxo-1,2,3,4-tetrahydroquinolin-7-yl)urea], the pIC50 on human TRPV1 [1] was 5.38. In addition, the “human TRPV1 H^+ (max % remain)” value at human TRPV1 [2] was found to be 33%.

Turning to `CN1C(=O)CCc2ccc(NC(=O)N[C@@H]3CCOc4cc(OC(F)(F)F)ccc43)cc21` [Example 278, 1-(1-methyl-2-oxo-1,2,3,4-tetrahydroquinolin-7-yl)-3-[(4R)-7-(trifluoromethoxy)-3,4-dihydro-2H-chromen-4-yl]urea], at human TRPV1 [1], the pIC50 is 7.11. Also, the “human TRPV1 H^+ (max % remain)” value at human TRPV1 [2] is reported as 68%.

For the compound `COCC1(COC)C[C@@H](NC(=O)Nc2ccc3c(c2)N(C)C(=O)CC3)c2cc(F)ccc2O1` [Example 279, 1-[(4R)-6-fluoro-2,2-bis(methoxymethyl)-3,4-dihydro-2H-chromen-4-yl]-3-(1-methyl-2-oxo-1,2,3,4-tetrahydroquinolin-7-yl)urea], the negative logarithm of the IC50 (pIC50) on human TRPV1 [1] was 6.29. The “human TRPV1 H^+ (max % remain)” value on human TRPV1 [2] is on record as 50%.

Take `CN1C(=O)CCc2ccc(NC(=O)N[C@@H]3CC(CF)(CF)Oc4ccccc43)cc21` [Example 280, 1-[(4R)-2,2-bis(fluoromethyl)-3,4-dihydro-2H-chromen-4-yl]-3-(1-methyl-2-oxo-1,2,3,4-tetrahydroquinolin-7-yl)urea]: the pIC50 on human TRPV1 [1] was 6.02. For the same compound, the “human TRPV1 H^+ (max % remain)” value at human TRPV1 [2] stood at 68%.

For the compound `CN1C(=O)CCc2ccc(NC(=O)N[C@@H]3CC(CF)(CF)Oc4c(F)cccc43)cc21` [Example 281, 1-[(4R)-8-fluoro-2,2-bis(fluoromethyl)-3,4-dihydro-2H-chromen-4-yl]-3-(1-methyl-2-oxo-1,2,3,4-tetrahydroquinolin-7-yl)urea], the pIC50 on human TRPV1 [1] is 6.09. At human TRPV1 [2], the “human TRPV1 H^+ (max % remain)” value worked out at 86%.

As to `CN1C(=O)CCc2ccc(NC(=O)N[C@@H]3CCOc4ccc(F)cc43)cc21` [Example 282, 1-[(4R)-6-fluoro-3,4-dihydro-2H-chromen-4-yl]-3-(1-methyl-2-oxo-1,2,3,4-tetrahydroquinolin-7-yl)urea], on human TRPV1 [1], the pIC50 is 6.39. Also, the “human TRPV1 H^+ (max % remain)” value on human TRPV1 [2] is recorded as 81%.

In the case of `CN1C(=O)CCc2ccc(NC(=O)N[C@@H]3CCc4cc(Cl)ccc43)cc21` [Example 283, 1-[(1R)-5-chloro-2,3-dihydro-1H-inden-1-yl]-3-(1-methyl-2-oxo-1,2,3,4-tetrahydroquinolin-7-yl)urea], the pIC50 on human TRPV1 [1] is 5.32. Also, the “human TRPV1 H^+ (max % remain)” value at human TRPV1 [2] amounted to 84%.

Take `CN1C(=O)CCc2ccc(NC(=O)N[C@@H]3CCc4cc(F)ccc43)cc21` [Example 285, 1-[(1R)-5-fluoro-2,3-dihydro-1H-inden-1-yl]-3-(1-methyl-2-oxo-1,2,3,4-tetrahydroquinolin-7-yl)urea]: the pIC50 at human TRPV1 [1] is 7.26. On human TRPV1 [2], the “human TRPV1 H^+ (max % remain)” value is 27%.

As for `CN1C(=O)CCc2ccc(NC(=O)N[C@H]3CC4(CCC4)Oc4ccc(F)cc43)cc21` [Example 286, 1-[(4S)-6-fluoro-3,4-dihydrospiro[chromene-2,1′-cyclobutan]-4-yl]-3-(1-methyl-2-oxo-1,2,3,4-tetrahydroquinolin-7-yl)urea], the negative-log IC50 (pIC50) at human TRPV1 [1] was 6.59. The “human TRPV1 H^+ (max % remain)” value on human TRPV1 [2] is listed as 68%.

`CN1C(=O)CCc2ccc(NC(=O)N[C@H]3CC(C)(C)Oc4ccc(F)cc43)cc21` [Example 287, 1-[(4S)-6-fluoro-2,2-dimethyl-3,4-dihydro-2H-chromen-4-yl]-3-(1-methyl-2-oxo-1,2,3,4-tetrahydroquinolin-7-yl)urea]: the pIC50 at human TRPV1 [1] is 4.89. Moreover, on human TRPV1 [2], the “human TRPV1 H^+ (max % remain)” value was 92%.

As to `CN1C(=O)CCc2ccc(NC(=O)N[C@@H]3CC4(CCCC4)Oc4ccccc43)cc21` [Example 288, 1-[(4R)-3,4-dihydrospiro[chromene-2,1′-cyclopentan]-4-yl]-3-(1-methyl-2-oxo-1,2,3,4-tetrahydroquinolin-7-yl)urea], the pIC50 on human TRPV1 [1] is 5.00. For the same compound, the “human TRPV1 H^+ (max % remain)” value on human TRPV1 [2] amounted to 75%.

Take `CN1C(=O)CCc2ccc(NC(=O)N[C@@H]3C[C@@](C)(CF)Oc4cc(C(F)(F)F)ccc43)cc21` [Example 289, 1-[(2S,4R)-2-(fluoromethyl)-2-methyl-7-(trifluoromethyl)-3,4-dihydro-2H-chromen-4-yl]-3-(1-methyl-2-oxo-1,2,3,4-tetrahydroquinolin-7-yl)urea]: on human TRPV1 [1], the pIC50 was 6.64. Besides, at human TRPV1 [2], the “human TRPV1 H^+ (max % remain)” value is 68%.

For `CN1C(=O)CCc2ccc(NC(=O)N[C@@H]3C[C@](C)(CF)Oc4cc(C(F)(F)F)ccc43)cc21` [Example 290, 1-[(2R,4R)-2-(fluoromethyl)-2-methyl-7-(trifluoromethyl)-3,4-dihydro-2H-chromen-4-yl]-3-(1-methyl-2-oxo-1,2,3,4-tetrahydroquinolin-7-yl)urea], the pIC50 on human TRPV1 [1] was 7.82. At human TRPV1 [2], the “human TRPV1 H^+ (max % remain)” value came to 68%.

In the case of `CN1C(=O)CCc2ccc(NC(=O)N[C@@H]3C[C@@](C)(CF)Oc4cc(Cl)ccc43)cc21` [Example 291, 1-[(2S,4R)-7-chloro-2-(fluoromethyl)-2-methyl-3,4-dihydro-2H-chromen-4-yl]-3-(1-methyl-2-oxo-1,2,3,4-tetrahydroquinolin-7-yl)urea], at human TRPV1 [1], the negative logarithm of the IC50 (pIC50) is 7.59. The “human TRPV1 H^+ (max % remain)” value at human TRPV1 [2] is 71%.

As for `CN1C(=O)CCc2ccc(NC(=O)N[C@@H]3C[C@@](C)(C(F)F)Oc4ccccc43)cc21` [Example 292, 1-[(2S,4R)-2-(difluoromethyl)-2-methyl-3,4-dihydro-2H-chromen-4-yl]-3-(1-methyl-2-oxo-1,2,3,4-tetrahydroquinolin-7-yl)urea], at human TRPV1 [1], the pIC50 is 7.59. Also, on human TRPV1 [2], the “human TRPV1 H^+ (max % remain)” value came to 68%.

As to `CN1C(=O)CCc2ccc(NC(=O)N[C@@H]3C[C@](C)(C(F)F)Oc4ccccc43)cc21` [Example 293, 1-[(2R,4R)-2-(difluoromethyl)-2-methyl-3,4-dihydro-2H-chromen-4-yl]-3-(1-methyl-2-oxo-1,2,3,4-tetrahydroquinolin-7-yl)urea], the pIC50 at human TRPV1 [1] is 6.57. Further, at human TRPV1 [2], the “human TRPV1 H^+ (max % remain)” value is 72%.

For `CN1C(=O)CCc2ccc(NC(=O)N[C@@H]3CC(C)(C)Oc4c3ccc(Cl)c4F)cc21` [Example 294, 1-[(4R)-7-chloro-8-fluoro-2,2-dimethyl-3,4-dihydro-2H-chromen-4-yl]-3-(1-methyl-2-oxo-1,2,3,4-tetrahydroquinolin-7-yl)urea], the pIC50 at human TRPV1 [1] is 6.92. Further, the “human TRPV1 H^+ (max % remain)” value on human TRPV1 [2] was 71%.

As for `CN1C(=O)CCc2ccc(NC(=O)N[C@@H]3CC(C)(C)Oc4nc(C(F)(F)F)ccc43)cc21` [Example 295, 1-[(4R)-2,2-dimethyl-7-(trifluoromethyl)-3,4-dihydro-2H-pyrano[2,3-b]pyridin-4-yl]-3-(1-methyl-2-oxo-1,2,3,4-tetrahydroquinolin-7-yl)urea], on human TRPV1 [1], the negative logarithm of the IC50 (pIC50) was 7.00. The “human TRPV1 H^+ (max % remain)” value on human TRPV1 [2] is given as 67%.

Take `CN1C(=O)CCc2ccc(NC(=O)N[C@@H]3CC(CF)(CF)Oc4cc(F)ccc43)cc21` [Example 296, 1-[(4R)-7-fluoro-2,2-bis(fluoromethyl)-3,4-dihydro-2H-chromen-4-yl]-3-(1-methyl-2-oxo-1,2,3,4-tetrahydroquinolin-7-yl)urea]: the pIC50 at human TRPV1 [1] was 6.89. Also, at human TRPV1 [2], the “human TRPV1 H^+ (max % remain)” value is 68%.

Broadly, the pIC50 is the IC50 on a negative log10 scale, so that one unit is a factor of ten.
